One compound from publication PMC5071873, “The Effects of Puerarin on Rat Ventricular Myocytes and the Potential Mechanism” (Scientific Reports, 2016) can be followed below.

SMILES strings stand for the structures. pIC50: −log10 of the molar value. Read-outs that look alike come from different tables or passages of the source.

What all share (format): cell-based
One assay concerns the target T1, Kir2.1 (Homo sapiens, UniProt P63252).
T1 construct: expressed in transfected cells; host or cells: HEK293
T1 sequence (P63252 1-427): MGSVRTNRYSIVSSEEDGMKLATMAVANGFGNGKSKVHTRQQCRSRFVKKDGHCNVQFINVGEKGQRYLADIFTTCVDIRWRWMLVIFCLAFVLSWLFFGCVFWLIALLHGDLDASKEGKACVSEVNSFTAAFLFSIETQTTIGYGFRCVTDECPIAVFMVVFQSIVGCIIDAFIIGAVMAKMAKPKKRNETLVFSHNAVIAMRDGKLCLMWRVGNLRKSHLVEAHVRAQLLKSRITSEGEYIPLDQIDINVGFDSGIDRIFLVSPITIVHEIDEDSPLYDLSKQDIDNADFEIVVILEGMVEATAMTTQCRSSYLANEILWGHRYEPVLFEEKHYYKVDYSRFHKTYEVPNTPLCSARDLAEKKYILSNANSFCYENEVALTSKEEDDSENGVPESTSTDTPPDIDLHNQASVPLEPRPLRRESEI
The experiment in a line: Whole-cell patch clamp of Kir2.1 currents (ramp voltage protocol) in transfected HEK293 cells. The protocol:
(§1) The Tyrode’s solution contained (mM): 126 NaCl, 5.4 KCl, 1.8 CaCl2, 1 MgCl2, 0.33 NaH2PO4, 10 HEPES and 10 glucose, pH 7.4 (adjusted with NaOH). The Ca^2+-free Tyrode’s solution was prepared by removing CaCl2 from the Tyrode’s solution. The Kreb’s solution used for cell storage contained (mM): 70 glutamic acid, 30 KCl, 15 taurine, 0.5 MgCl2, 10 KH2PO4, 0.5 EGTA, 10 HEPES, 10 glucose, and 1% albumin, pH 7.4 (adjusted with KOH). The enzyme solution used for the rat cardiomyocyte isolation contained 0.08 g/L collagenase (type II) and 1.0 g/L BSA in Kreb’s solution. For action potential recording on cardiomyocyte, the pipette solution contained (mM): 100 potassium aspartate, 30 KCl, 1 MgCl2, 5 Mg-ATP, 5 EGTA, 5 HEPES, pH 7.3 (adjusted with KOH); the Tyrode’s solution was used as the standard bath solution. For whole-cell recording of IKs on myocytes, the pipette solution contained (mM): 125 potassium aspartate, 20 KCl, 1 MgCl2, 5 Mg-ATP, 10 EGTA, 5 HEPES, pH 7.3 (adjusted with KOH); the bath solution contained (mM): 132 NaCl, 4 KCl, 1.8 CaCl2, 1.2 MgCl2, 10 HEPES, 5 glucose, pH 7.4 (adjusted with NaOH). 3 μM nifedipine and 5 μM E-4031 were used to block the calcium current and IKr, respectively. For whole-cell recording on HEK-293 cells, the pipette solution contained (mM): 140 KCl, 2 MgCl2, 10 HEPES, 0.1 EGTA, 4 K2-ATP, pH 7.3 (adjusted with KOH); the bath solution contained (mM): 120 NaCl, 5 KCl, 1.5 CaCl2, 1 MgCl2, 10 HEPES, 10 glucose, pH 7.4 (adjusted with NaOH). For single-channel recording, the pipette solution (extracellular) contained (mM): 145 KCl, 10 HEPES, 10 glucose, pH 7.4 (adjusted with KOH); the bath solution (intracellular) contained (mM): 145 KCl, 1.2 MgCl2, 10 HEPES, 0.1 EGTA, pH 7.38 (adjusted with KOH).
(§2) Cell suspensions were transferred into a chamber on the stage of a Nikon Eclipse Ti inverted microscope (Tokyo, Japan). The whole-cell recordings were performed using isolated single ventricular myocytes. Patch electrodes were pulled from a horizontal microelectrode puller (P-1000, Sutter Instrument Co, USA) and fire polished to final tip resistance of 4.0–8.0 MΩ when filled with internal solutions. Signals were amplified with an Axopatch 200B amplifier (Axon Instruments, USA) and filtered at 1 kHz. The pCLAMP 9.0 software was used to generate current and voltage clamp protocols, acquire data, and analyse the current traces. The whole-cell series resistance was compensated to more than 80%. All of the experiments were performed at room temperature (22 ± 1 °C). The whole-cell IK1 was elicited by a ramp voltage protocol from −140 to + 40 mV in 1 s, or at a 0 mV holding potential to test potentials from −140 to + 40 mV in 10 mV increments. The IK1 was calculated as the difference between the peak inward current and the holding current level. The whole-cell Kv7.1/IKs were elicited from a −30 mV holding potential to test potentials from −80 to + 40 mV in 10 mV increments.
(§3) Human Kir2.1 cDNA, Kir2.3 cDNA, Kv7.1 cDNA and KCNE1 cDNA, was cloned in Human Embryonic Kidney 293 cells, respectively. In some cases, Kv7.1 cDNA and KCNE1 cDNA were simultaneously cloned in Human Embryonic Kidney 293 cells.
In general terms: Patch clamp records ionic current or voltage across a cell membrane.

Another assay addresses T2, Kv7.1 (Homo sapiens, UniProt P51787).
T2 construct: expressed in transfected cells; host or cells: HEK293
The experiment in a line: Whole-cell patch clamp of Kv7.1 currents (voltage steps) in transfected HEK293 cells. The note with it: for pIC50: HEK293, non-linear Hill fit, n = 6 each point; for Kv7.1-tail current density / Kv7.1 current density: at 40 mV; for Kv7.1-tail current density: control 10.4 ± 0.6; for Kv7.1 current density: control 24.3 ± 1.1. The procedure:
as §1, §2, §3

A further assay relates to intracellular cAMP. The experiment in a line: Mouse/Rat cAMP assay in rat cardiomyocytes. The note with it: puerarin 1 mM. The procedure: cAMP levels were measured in rat cardiomyocytes using a Mouse/Rat cAMP kit (cAMP parameter assay kit, R&D Systems) according to the manufacturer’s instructions. The assay is based on the competitive binding technique. A streptavidin-coated plate is incubated with a biotinylated monoclonal antibody specific for cAMP. Following a wash to remove excess monoclonal antibody, cAMP present in a sample competes with a fixed amount of horseradish peroxidase (HRP)-labeled cAMP for sites on the monoclonal antibody. This is followed by another wash to remove excess conjugate and unbound sample. A substrate solution is added to the wells to determine the bound enzyme activity. The color development is stopped and the absorbance is read at 450 nm. The intensity of the color is inversely proportional to the concentration of cAMP in the sample. The level of cAMP in the sample was determined based on a standard curve and expressed as pmol/mg per each sample. Normalized cAMP was calculated by compared with the control group. In our study, we investigate the effect of puerarin on intracellular cAMP concentration and its effect upon the increase of cAMP induced by isoproterenol, forskolin and 8-Br-cAMP.
Background: cAMP levels reflect the balance of adenylyl cyclase and phosphodiesterase activity.

As usually defined, the pIC50 is −log10 of the IC50, conventionally taken in molar units. `O=c1c(-c2ccc(O)cc2)coc2c([C@@H]3O[C@H](CO)[C@@H](O)[C@H](O)[C@H]3O)c(O)ccc12` [Puerarin, 8-c-glucoside of daidzein]: the “effect on Kir2.1 currents at low concentrations” value on Kir2.1 (10 μM, 1 mM (so in the source)) is listed as “little effect”. The “saturation dosage, inhibition of Kir2.1” value at Kir2.1 (HEK293) turned out to be 50 mM. Also, at Kir2.1 (HEK293, n = 5 each point), the “maximal inhibitory effect upon Kir2.1” value is 53.11 ± 1.84%. Besides, the pIC50 at Kir2.1 (HEK293, non-linear Hill fit, n = 5 each point, read-out: IC50, inhibition of Kir2.1 currents) was 2.90; at Kv7.1 (read-out: IC50, inhibition of Kv7.1 at the peak currents) it was 4.44; on Kv7.1 (read-out: IC50, inhibition of Kv7.1 at the tail currents), 4.40. At Kir2.1 (non-linear Hill fit), the “Hill coefficient, inhibition of Kir2.1” value was determined as 0.990. On Kv7.1 (non-linear Hill fit), the “Hill coefficient, inhibition of Kv7.1” value turned out to be 0.997. Besides, the Kv7.1-tail current density at Kv7.1 (puerarin 10 μM) was determined as 8.8 ± 0.7 pA/pF; on Kv7.1 (puerarin 100 μM), 3.8 ± 0.6 pA/pF; on Kv7.1 (puerarin 1 mM), 2.5 ± 0.9 pA/pF; at Kv7.1 (puerarin 10 mM), 2.0 ± 0.5 pA/pF. Besides, the Kv7.1 current density is given as 19.1 ± 1.0 pA/pF at Kv7.1 (puerarin 10 μM), 7.9 ± 0.8 pA/pF on Kv7.1 (puerarin 100 μM), 6.1 ± 0.4 pA/pF on Kv7.1 (puerarin 1 mM) and 4.8 ± 0.8 pA/pF on Kv7.1 (puerarin 10 mM). In addition, the “effect on Kv7.1 current activated by isoproterenol, forskolin or 8-Br-cAMP” value at Kv7.1 (puerarin 100 μM) is “antagonized such activation effect”. In the assay on intracellular cAMP (rat cardiac myocytes), the “effect upon the increase of cAMP induced by isoproterenol, forskolin” value was “no effect”. Further, the “effect on intracellular cAMP concentration” value in the assay on intracellular cAMP (rat cardiac myocytes (text: also HEK293 transfected Kv7.1/IKs)) is “no effect”.
